These results are taken from patent publication US8338565B2, “Macrocyclic compounds for inhibition of tumor necrosis factor alpha” (Ensemble Therapeutics Corporation, priority 2008, dated 2012).

Numbered stars: 1 amine (or outer) side, 2 acyl side, 3 side chain; on linkers, the order of the positions; unused ones are H or OH. Bridge positions count the residues as written; N and C are the ends. Square brackets hold non-standard residues; d marks the D form. Peptide text beside a SMILES is read from it. Tartaroyl(2R,3R-(OAc)2) = CC(=O)O[C@@H](C(=O)[*:1])[C@@H](OC(C)=O)C(=O)[*:2]; Bip(2'-Me) = Cc1ccccc1-c1ccc(C[C@H](N)C(=O)O)cc1; Phe(4-CF3) = N[C@@H](Cc1ccc(C(F)(F)F)cc1)C(=O)O; Bip = N[C@@H](Cc1ccc(-c2ccccc2)cc1)C(=O)O; dBip = N[C@H](Cc1ccc(-c2ccccc2)cc1)C(=O)O; dPhe(4-NH2) = Nc1ccc(C[C@@H](N)C(=O)O)cc1; Phe(4-Br) = N[C@@H](Cc1ccc(Br)cc1)C(=O)O; Phe(4-NH2) = Nc1ccc(C[C@H](N)C(=O)O)cc1; dAla(2-furyl) = N[C@H](Cc1ccco1)C(=O)O; d(hhPhe) = N[C@H](CCCc1ccccc1)C(=O)O; d(hPhe) = N[C@H](CCc1ccccc1)C(=O)O; d4Pal = N[C@H](Cc1ccncc1)C(=O)O; 2Thi = N[C@@H](Cc1cccs1)C(=O)O; d2Thi = N[C@H](Cc1cccs1)C(=O)O; Suc = O=C(CCC(=O)[*:2])[*:1]

This assay deals with T1, TNFα / TNFα receptor (TNFα R1/Fc) (Homo sapiens, UniProt P01375).
T1 construct: purchased R&D Systems
T1 sequence (P01375 77-233 limits assumed, species assumed): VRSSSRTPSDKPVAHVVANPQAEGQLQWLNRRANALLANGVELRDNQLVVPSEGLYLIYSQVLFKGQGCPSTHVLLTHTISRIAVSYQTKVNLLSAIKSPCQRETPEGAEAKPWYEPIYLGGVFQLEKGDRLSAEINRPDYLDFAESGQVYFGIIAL
As to the kind of experiment: Inhibition of binding of TNFα to the TNFα receptor (plate ELISA competition). As to conditions: Table 2; read-out: Activity (IC50, inhibition of TNFα binding to TNFα R1/Fc). Summed up:
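Compound dilutions were preincubated 30 min at RT with 8.33 nM TNFα R1/Fc in PBST with 2% DMSO, then added to wells coated with 15 nM TNFα for 30 min. Bound receptor was detected with HRP anti-human Fc and TMB, read as A450.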
For the compound `O=C1CCC(=O)N[C@H](Cc2cccs2)C(=O)N[C@@H](Cc2ccc(-c3ccccc3)cc2)C(=O)N[C@H](Cc2ccncc2)C(=O)N[C@H](C(=O)O)Cc2ccc(cc2)N1` [Compound 50] ([d2Thi][Bip][d4Pal][Phe(4-NH2)]-OH; linker N-4 via Suc), the IC50 is more than 100 µM.

On to `CC(C)(C)Oc1ccc(C[C@@H]2NC(=O)[C@H](Cc3ccc(-c4ccccc4)cc3)NC(=O)[C@H](Cc3cccs3)NC(=O)COc3ccc(cc3)C[C@@H](C(=O)O)NC2=O)cc1` [Compound 347], for which the IC50 is 30 to 100 µM.

On to `O=C1COc2ccc(cc2)C[C@@H](C(=O)NS(=O)(=O)c2ccccc2)NC(=O)[C@H](CCc2ccccc2)NC(=O)[C@@H](Cc2ccc(-c3ccccc3)cc2)NC(=O)[C@H](Cc2cccs2)N1` [Compound 483], for which the IC50 was more than 100 µM.

`O=C1CCCCc2cn(nn2)C[C@@H](C(=O)O)NC(=O)[C@@H](CCc2ccccc2)NC(=O)[C@H](Cc2ccc(-c3ccccc3)cc2)NC(=O)[C@@H](Cc2cccs2)N1` [Compound 544]: the IC50 was less than 10 µM.

For the compound `O=C(O)[C@@H]1Cc2ccc(cc2)NC(=O)[C@H](O)[C@@H](O)C(=O)N[C@H](Cc2cccnc2)C(=O)N[C@@H](Cc2ccc(-c3ccccc3)cc2)C(=O)N[C@H](Cc2ccccc2)C(=O)N1` [Compound 311], the IC50 is 30 to 100 µM.

For `O=C1COc2ccc(cc2)C[C@@H](C(=O)O)NC(=O)[C@H](CCc2ccccc2)NC(=O)[C@@H](Cc2ccc(-c3ccc(F)cc3)cc2)NC(=O)[C@H](Cc2cccs2)N1` [Compound 655], the IC50 was less than 10 µM.

As to `N=C(N)NCCC[C@H]1NC(=O)CCC(=O)Nc2ccc(cc2)C[C@@H](C(=O)O)NC(=O)[C@@H](Cc2ccccc2)NC(=O)[C@H](Cc2ccc(C(F)(F)F)cc2)NC1=O` [Compound 141] ([dR][Phe(4-CF3)][dF][Phe(4-NH2)]-OH; linker N-4 via Suc), the IC50 was more than 100 µM.

On to `O=C1COc2ccc(cc2)C[C@@H](C(=O)O)NC(=O)[C@H](Cc2ccc(-c3ccccc3)cc2)NC(=O)[C@@H](Cc2ccc(-c3ccccc3)cc2)NC(=O)[C@H](Cc2cccs2)N1` [Compound 726], for which the IC50 was in the range of 30 to 100 µM.

For `O=C1CCC(=O)N[C@@H](Cc2cccs2)C(=O)N[C@@H](Cc2ccc(-c3ccccc3)cc2)C(=O)N[C@@H](Cc2ccccc2)C(=O)N[C@@H](C(=O)O)Cc2ccc(cc2)N1` [Compound 502] ([2Thi][Bip]F[dPhe(4-NH2)]-OH; linker N-4 via Suc), the IC50 is more than 100 µM.

With `O=C1COc2ccc(cc2)C[C@@H](C(=O)NCS(=O)(=O)O)NC(=O)[C@H](CCc2ccccc2)NC(=O)[C@@H](Cc2ccc(-c3ccccc3)cc2)NC(=O)[C@H](Cc2ccc(-c3ccncc3)cc2)N1` [Compound 617], the IC50 is less than 10 µM.

Take `O=C(O)[C@@H]1Cc2ccc(cc2)NC(=O)[C@H](O)[C@@H](O)C(=O)N[C@H](Cc2cccs2)C(=O)N[C@@H](Cc2ccc(-c3ccccc3)cc2)C(=O)N[C@H](Cc2ccco2)C(=O)N1` [Compound 284]: the IC50 lay within 10 to 30 µM.

On to `O=C(O)CN(Cc1ccccc1)C(=O)[C@@H]1Cc2ccc(cc2)OCC(=O)N[C@@H](Cc2cccs2)C(=O)N[C@@H](Cc2ccc(-c3ccccc3)cc2)C(=O)N[C@@H](Cc2ccccc2)C(=O)N1` [Compound 340], for which the IC50 was less than 10 µM.

In the case of `O=C1CN(Cc2ccccc2)C(=O)[C@@H](Cc2ccc(-c3ccccc3)cc2)NC(=O)[C@H](Cc2cccs2)NC(=O)COc2ccc(cc2)C[C@@H](C(=O)O)N1` [Compound 253], the IC50 was more than 100 µM.

On to `O=C1CCC(=O)N[C@H](Cc2cccs2)C(=O)N[C@H](Cc2ccc(-c3ccccc3)cc2)C(=O)N[C@@H](Cc2ccccc2)C(=O)N[C@H](C(=O)O)Cc2ccc(cc2)N1` [Compound 496] ([d2Thi][dBip]F[Phe(4-NH2)]-OH; linker N-4 via Suc), for which the IC50 is more than 100 µM.

Turning to `O=C1COc2ccc(cc2)C[C@@H](C(=O)O)NC(=O)[C@H](Cc2ccccc2)NC(=O)[C@@H](Cc2ccc(Br)cc2)NC(=O)[C@H](Cc2cccs2)N1` [Compound 399], the IC50 is more than 100 µM.

For the compound `O=C1COc2ccc(cc2)C[C@@H](C(=O)N[C@H](CCc2ccccc2)C(=O)O)NC(=O)[C@H](CCc2ccccc2)NC(=O)[C@@H](Cc2ccc(-c3ccccc3)cc2)NC(=O)[C@H](Cc2ccncc2)N1` [Compound 619], the IC50 is less than 10 µM.

`Cc1ccccc1-c1ccc(C[C@@H]2NC(=O)[C@@H](Cc3cccs3)NC(=O)CCC(=O)Nc3ccc(cc3)C[C@@H](C(=O)O)NC(=O)[C@@H](Cc3ccccc3)NC2=O)cc1` [Compound 95] ([d2Thi][Bip(2'-Me)][dF][Phe(4-NH2)]-OH; linker N-4 via Suc): the IC50 was 30 to 100 µM.

In the case of `O=C(O)CNC(=O)[C@@H]1Cc2ccc(cc2)OCC(=O)N[C@@H](Cc2ccncc2)C(=O)N[C@H](Cc2ccc(-c3ccccc3)cc2)C(=O)N[C@@H](CCc2ccccc2)C(=O)N1` [Compound 558], the IC50 is less than 10 µM.

In the case of `C[C@@H](NC(=O)[C@@H]1Cc2ccc(cc2)OCC(=O)N[C@@H](Cc2ccncc2)C(=O)N[C@H](Cc2ccc(-c3ccccc3)cc2)C(=O)N[C@@H](CCc2ccccc2)C(=O)N1)C(=O)O` [Compound 557], the IC50 was less than 10 µM.

Turning to `CC(=O)O[C@H]1C(=O)Nc2ccc(cc2)C[C@H](C(=O)O)NC(=O)[C@@H](Cc2ccco2)NC(=O)[C@H](Cc2ccc(Br)cc2)NC(=O)[C@@H](Cc2cccs2)NC(=O)[C@@H]1OC(C)=O` [Compound 154] ([d2Thi][Phe(4-Br)][dAla(2-furyl)][dPhe(4-NH2)]-OH; linker N-4 via Tartaroyl(2R,3R-(OAc)2)), the IC50 was more than 100 µM.

With `O=C1CCC(=O)N[C@H](CCCc2ccccc2)C(=O)N[C@@H](Cc2ccc(C(F)(F)F)cc2)C(=O)N[C@H](Cc2ccccc2)C(=O)N[C@H](C(=O)O)Cc2ccc(cc2)N1` [Compound 136] ([d(hhPhe)][Phe(4-CF3)][dF][Phe(4-NH2)]-OH; linker N-4 via Suc), the IC50 was 30 to 100 µM.

Consider `O=C1COc2ccc(cc2)C[C@@H](C(=O)NCCO)NC(=O)[C@H](CCc2ccccc2)NC(=O)[C@@H](Cc2ccc(-c3ccccc3)cc2)NC(=O)[C@H](Cc2ccncc2)N1` [Compound 578], for which the IC50 is more than 100 µM.

In the case of `C[C@H](NC(=O)[C@@H]1Cc2ccc(cc2)NC(=O)CCC(=O)N[C@H](Cc2ccccc2)C(=O)N[C@@H](Cc2ccc(-c3ccccc3)cc2)C(=O)N[C@H](CCc2ccccc2)C(=O)N1)C(=O)O` [Compound 458] ([dF][Bip][d(hPhe)][Phe(4-NH2)]A-OH; linker N-4 via Suc), the IC50 was more than 100 µM.

Consider `O=C1COc2ccc(cc2)C[C@@H](C(=O)O)NC(=O)[C@H](Cc2ccccc2)NC(=O)[C@H](Cc2ccc(-c3ccccc3)cc2)NC(=O)[C@H](Cc2ccc(OCc3ccccc3)cc2)N1` [Compound 491], for which the IC50 is more than 100 µM.

For the compound `O=C1COc2ccc(cc2)C[C@H](C(=O)N[C@H](CCc2ccccc2)C(=O)O)NC(=O)[C@H](CCc2ccccc2)NC(=O)[C@@H](Cc2ccc(-c3ccccc3)cc2)NC(=O)[C@H](Cc2ccncc2)N1` [Compound 738], the IC50 was less than 10 µM.

Consider `O=C1COc2ccc(cc2)C[C@@H](C(=O)O)NC(=O)[C@H](Cc2ccccc2)NC(=O)[C@H](Cc2ccc(-c3ccc(C(=O)O)cc3)cc2)NC(=O)[C@H](Cc2cccs2)N1` [Compound 361], for which the IC50 was more than 100 µM.

Consider `O=C1CCC(=O)N[C@H](Cc2cccs2)C(=O)N[C@@H](Cc2ccc(-c3ccccc3)cc2)C(=O)N[C@H](Cc2ccccc2)C(=O)N[C@H](C(=O)O)CCCCN1` [Compound 42] ([d2Thi][Bip][dF]K-OH; linker N-4 via Suc), for which the IC50 is more than 100 µM.
